The values below come from ChEMBL document CHEMBL4354783, “The calcium-dependent lipopeptide antibiotics: structure, mechanism, & medicinal chemistry” (2019).

≈ marks a conversion by molar mass, not a printed value.

For one experiment, the system named is Staphylococcus aureus. Put plainly: Antibacterial activity against methicillin-resistant Staphylococcus aureus USA300 incubated for 18 hrs by two-fold serial dilutions method. Type of experiment: functional. The conditions noted are these: USA300, 18 h.
A further experiment relates to Enterococcus faecium. Put plainly: Antibacterial activity against vancomycin-resistant Enterococcus faecium incubated for 18 hrs by two-fold serial dilutions method. The format is functional.

Usually MIC stands for the lowest concentration that inhibits growth of the organism. Read a high MIC as weaker potency.

Consider `CC(C)CC/C=C\C=C\C(=O)N[C@H](C(=O)N[C@@H]1C(=O)N[C@H](C(C)C)C(=O)N[C@@H](CCCCN)C(=O)N[C@@H](C(O)C(=O)O)C(=O)N[C@@H](CC(=O)O)C(=O)NCC(=O)N[C@H](C(C)C(=O)O)C(=O)N[C@@H](C(C)C)C(=O)N2C[C@H](C)C[C@H]2C(=O)NC1C)C(C)C(=O)O` (some centres undefined), for which the results for the MIC with Staphylococcus aureus and with Enterococcus faecium were 0.2 to 0.8 µg/mL (≈ 0.16 to 0.64 µM) and 0.8 to 2 µg/mL (≈ 0.64 to 1.6 µM), respectively.

Regarding `CCC(C)CC/C=C\C=C\C(=O)N[C@H](C(=O)N[C@@H]1C(=O)N[C@H](C(C)C)C(=O)N[C@@H](CCCCN)C(=O)N[C@@H](C(O)C(=O)O)C(=O)N[C@@H](CC(=O)O)C(=O)NCC(=O)N[C@H](C(C)C(=O)O)C(=O)N[C@@H](C(C)C)C(=O)N2C[C@H](C)C[C@H]2C(=O)NC1C)C(C)C(=O)O` (some centres undefined), the MIC was 0.2 to 0.8 µg/mL (≈ 0.158 to 0.633 µM) against Staphylococcus aureus and 0.8 to 2 µg/mL (≈ 0.633 to 1.58 µM) against Enterococcus faecium.
